The numbers were not newly measured in patent US20110281902A1, “COMBINATIONS COMPRISING A PROTEIN KINASE INHIBITOR BEING A PYRIMIDYLAMINOBENZAMIDE COMPOUND AND A HSP90 INHIBITOR SUCH AS 17-AAG” (priority 2005, published 2011), which cites them from elsewhere.

The conditions of data set [1]: clinical trials in hematological malignancies and solid tumors.
For data set [2] the following is noted: makes it difficult to formulate/administer.

With `C=CCNC1=C2C[C@@H](C)C[C@H](OC)[C@H](O)[C@@H](C)/C=C(\C)[C@H](OC(N)=O)[C@@H](OC)/C=C\C=C(/C)C(=O)NC(=CC1=O)C2=O` [17-AAG, 17-allylamino-17-demethoxygeldanamycin], in data set [1], the dose limiting toxicity result is recorded as “hepatic”. Besides, in data set [2], the solubility entry is “poor solubility”.
